The values below come from patent publication US20240294533A1, “2-(HET)ARYL-SUBSTITUTED CONDENSED HETEROCYCLE DERIVATIVES AS PEST CONTROL AGENTS” (Bayer Aktiengesellschaft, priority 2021, published 2024).

Where two headings read alike, the source gives them in different places.

Data set [1] deals with Diabrotica balteata. Description: Diabrotica balteata spray test. The class given is in vivo. As to conditions: wheat grains, after 7 days; for pest or weed control at 100 g/ha / pest or weed control at 125 g/ha: Diabrotica balteata, 168 h, read-out: efficacy; for pest or weed control at 125 g/ha: 125 g/ha (=40 μg/cavity). From the text:
Diabrotica balteata—Spray Test Solvent: 78 parts by weight of acetone • • 1.5 parts by weight of dimethylformamide Emulsifier: alkylaryl polyglycol ether An appropriate active ingredient formulation is produced by dissolving 1 part by weight of active ingredient with the stated parts by weight of solvent and making the solution up to the desired concentration with water containing an emulsifier concentration of 1000 ppm. Further test concentrations are produced by diluting the formulation with emulsifier-containing water. Pre-swollen wheat grains (Triticum aestivum) are incubated in a multiwell plate filled with agar and a little water for one day (5 seed grains per cavity). The germinated wheat grains are sprayed with an active ingredient formulation of the desired concentration. Subsequently, each cavity is infected with 10-20 beetle larvae of Diabrotica balteata. After 7 days, efficacy in % is determined. 100% means that all wheat plants have grown as in the untreated, uninfected control; 0% means that no wheat plant has grown.

The test system of data set [2] is Meloidogyne incognita. Description: Meloidogyne incognita test. As to conditions: lettuce, gall formation after 14 days; for pest or weed control at 20 ppm: Meloidogyne incognita, 336 h, read-out: nematicidal efficacy. The format is in vivo. From the text:
Meloidogyne incognita Test Solvent: 125.0 parts by weight of acetone An appropriate active ingredient formulation is produced by mixing 1 part by weight of active ingredient with the stated amount of solvent and diluting the concentrate to the desired concentration with water. Vessels are filled with sand, active ingredient solution, an egg/larvae suspension of the southern root-knot nematode (Meloidogyne incognita) and lettuce seeds. The lettuce seeds germinate and the plants develop. The galls develop on the roots. After 14 days, the nematicidal efficacy in % is determined by the formation of galls. 100% means that no galls were found; 0% means that the number of galls on the treated plants corresponds to the untreated control.

Data set [3] relates to Spodoptera frugiperda. The data set is described as follows: Spodoptera frugiperda spray test (maize leaf discs). The format is in vivo. As to conditions: after 7 days; for pest or weed control at 100 g/ha: Spodoptera frugiperda, foliar, 168 h, read-out: efficacy. From the text: Spodoptera Frusiperda—Spray Test Solvent: 78.0 parts by weight of acetone • • 1.5 parts by weight of dimethylformamide Emulsifier: alkylaryl polyglycol ether An appropriate active ingredient formulation is produced by dissolving 1 part by weight of active ingredient with the stated parts by weight of solvent and making the solution up to the desired concentration with water containing an emulsifier concentration of 1000 ppm. Further test concentrations are produced by diluting the formulation with emulsifier-containing water. Leaf discs of maize (Zea mays) are sprayed with an active ingredient formulation of the desired concentration and, after drying, populated with caterpillars of the fall armyworm (Spodoptera frugiperda). After 7 days, efficacy in % is determined. 100% means that all the caterpillars have been killed; 0% means that no caterpillar has been killed.

Data set [4] concerns Nezara viridula. The data set is described as follows: Nezara viridula spray test (plants sprayed, then infected). The class given is in vivo. Conditions: 500 g/ha, barley plants, after 4 days. From the text: (§1) Nezara viridula—Spray Test Solvent: 78.0 parts by weight of acetone • • 1.5 parts by weight of dimethylformamide Emulsifier: alkylaryl polyglycol ether An appropriate active ingredient formulation is produced by dissolving 1 part by weight of active ingredient with the stated parts by weight of solvent and making the solution up to the desired concentration with water containing an emulsifier concentration of 1000 ppm. Further test concentrations are produced by diluting the formulation with emulsifier-containing water. Barley plants (Hordeum vulgare) are sprayed with an active ingredient formulation of the desired concentration and are infected with larvae of the Southern green shield bug (Nezara viridula). After 4 days, efficacy in % is determined. 100% means that all of the shield bugs have been killed; 0% means that none of the shield bugs have been killed.

Data set [5] in a line: log P by HPLC on reversed-phase column (C18). The format is physicochemical. Conditions: LC-UV. On the procedure: log P Values The log P values were determined according to EEC Directive 79/831 Annex V.A8 by HPLC (high-performance liquid chromatography) on a reversed-phase column (C18) using the following methods: ^[a] […] Calibration was carried out using straight-chain alkan-2-ones (having 3 to 16 carbon atoms) with known log P values. The values between successive alkanones are determined by linear regression.

Data set [6] relates to Myzus persicae. Description: Myzus persicae oral test. The class given is in vivo. As to conditions: 4 ppm, after 5 days. On the procedure: Myzus persicae—Oral Test Solvent: 100 parts by weight of acetone An appropriate active ingredient formulation is produced by dissolving 1 part by weight of active ingredient with the specified parts by weight of solvent and making the solution up to the desired concentration with water. 50 μl of the active ingredient formulation is transferred into microtitre plates and made up to a final volume of 200 μl with 150 μl of IPL41 insect medium (33%+15% sugar). Subsequently, the plates are sealed with parafilm, which a mixed population of green peach aphids (Myzus persicae) within a second microtitre plate is able to puncture and imbibe the solution. After 5 days, efficacy in % is determined. 100% means that all the aphids have been killed; 0% means that no aphids have been killed.

The test system of data set [7] is Nezara viridula. Description: Nezara viridula spray test (infected barley plants sprayed). The format is in vivo. As to conditions: 100 g ai/ha, after 4 days.
Description: as §1, with “52.5” for “78.0”, “7” for “• 1.5”, “water. If the addition of ammonium salts or/and penetrants is required, these are each added in a concentration of 1000 ppm to the formulation solution.” for “water.”, “vulgare) infected with larvae of the Southern green shield bug (Nezara viridula)” for “vulgare)”, “concentration.” for “concentration and are infected with larvae of the Southern green shield bug (Nezara viridula).”

[8] abbreviates: neutral range, ammonium acetate/acetonitrile, read-out: log P (neutral).

For the molecule `CCS(=O)(=O)c1ccc(-n2ncn(-c3ccc(I)cc3)c2=O)nc1-c1nc2cc(C(F)(F)C(F)(F)F)nnc2n1C` [Example I-09], the pest or weed control at 100 g/ha in data set [1] (100 g/ha (=32 μg/cavity)) and in data set [3] was 100% in each case. Besides, in data set [2], the pest or weed control at 20 ppm is 90%.
On to `CCS(=O)(=O)c1ccc(-n2ncn(-c3cccc(Cl)c3)c2=O)nc1-c1nc2cc(C(F)(F)C(F)(F)F)cnc2n1C` [Example I-19], for which the pest or weed control at 100 g/ha in data set [1] (100 g/ha (=32 μg/cavity)) and in data set [3] was 100% in each case.
Consider `CCS(=O)(=O)c1ccc(-n2ncn(-c3cccc(C4(C#N)CC4)c3)c2=O)nc1-c1nc2cc(C(F)(F)C(F)(F)F)cnc2n1C` [Example I-04], for which the pest or weed control at 100 g/ha in data set [1] (100 g/ha (=32 μg/cavity)) and in data set [3] was 100% in each case. In addition, the efficacy in data set [4] is on record as 100%.
As for `CCS(=O)(=O)c1ccc(-n2ncn(-c3ccc(F)cc3)c2=O)nc1-c1nc2cc(C(F)(F)C(F)(F)F)nnc2n1C` [Example I-10], the pest or weed control at 100 g/ha in data set [1] (100 g/ha (=32 μg/cavity)) and in data set [3] was 100% throughout. For the same molecule, the pest or weed control at 20 ppm in data set [2] is 100%.
Regarding `CCS(=O)(=O)c1ccc(-n2ncn(-c3ccc(Cl)c(C#N)c3)c2=O)nc1-c1nc2cc(C(F)(F)C(F)(F)F)cnc2n1C` [Example I-07], the pest or weed control at 100 g/ha in data set [1] (100 g/ha (=32 μg/cavity)) and in data set [3] was 100% throughout. In addition, in data set [4], the efficacy was 100%. The pest or weed control at 20 ppm in data set [2] was 100%.
As for `CCSc1ccc(F)nc1-c1nc2cc(C(F)(F)C(F)(F)F)cnc2n1C` [2-(3-Ethylsulfanyl-6-fluoro-2-pyridyl)-3-methyl-6-(1,1,2,2,2-pentafluoroethyl)imidazo[4,5-b]pyridine], the chromatographic logP in data set [5] (acidic range, formic acid/acetonitrile, read-out: log P (acidic)) was 4.05.
`Cn1c(-c2nc(F)ccc2F)nc2cc(C(F)(F)C(F)(F)F)cnc21` [2-(3,6-Difluoro-2-pyridyl)-3-methyl-6-(1,1,2,2,2-pentafluoroethyl)imidazo[4,5-b]pyridine]: the chromatographic logP in data set [5] (setting [8]) is 3.3.
In the case of `CCS(=O)(=O)c1ccc(-n2ncn(-c3ccc(C#N)c(Cl)c3)c2=O)nc1-c1nc2cc(C(F)(F)C(F)(F)F)cnc2n1C` [Example I-17], the pest or weed control at 100 g/ha in data set [1] (100 g/ha (=32 μg/cavity)) and in data set [3] was 100% throughout. The pest or weed control at 20 ppm in data set [2] worked out at 90%. The efficacy in data set [6] amounted to 90%.
On to `CCS(=O)(=O)c1ccc(-n2ncn(-c3cccc(F)c3)c2=O)nc1-c1nc2cc(C(F)(F)C(F)(F)F)cnc2n1C` [Example I-16], for which the pest or weed control at 100 g/ha in data set [1] (100 g/ha (=32 μg/cavity)) and in data set [3] was 100% in each case. Moreover, in data set [2], the pest or weed control at 20 ppm worked out at 100%.
Take `CCS(=O)(=O)c1ccc(-n2ncn(-c3cccc(Br)c3)c2=O)nc1-c1nc2cc(C(F)(F)C(F)(F)F)nnc2n1C` [Example I-15]: the efficacy in data set [1] (100 g/ha (=32 μg/cavity)) and in data set [7] was 100% each time. In data set [2] (20 ppm), the nematicidal efficacy stood at 100%. Moreover, in data set [3], the pest or weed control at 100 g/ha came to 100%.
For `CCS(=O)(=O)c1ccc(-n2ncn(-c3cccc(Cl)c3)c2=O)nc1-c1nc2cc(C(F)(F)C(F)(F)F)nnc2n1C` [Example I-13], the pest or weed control at 100 g/ha in data set [1] (100 g/ha (=32 μg/cavity)) and in data set [3] was 100% each time. The efficacy in data set [7] came to 100%.
`CCS(=O)(=O)c1ccc(-n2ncn(-c3ccc(C4(C#N)CC4)cc3)c2=O)nc1-c1nc2cc(C(F)(F)C(F)(F)F)nnc2n1C` [Example I-21]: in data set [1], the pest or weed control at 125 g/ha worked out at 100%. Further, in data set [2], the pest or weed control at 20 ppm is 90%. This molecule returned an efficacy in data set [6] of 100%. For the same molecule, in data set [3], the pest or weed control at 100 g/ha turned out to be 100%.
Regarding `CCS(=O)(=O)c1ccc(-n2ncn(-c3cccc(I)c3)c2=O)nc1-c1nc2cc(C(F)(F)C(F)(F)F)cnc2n1C` [Example I-18], the pest or weed control at 100 g/ha in data set [1] (100 g/ha (=32 μg/cavity)) and in data set [3] was 100% in each case. In addition, in data set [7], the efficacy was 90%.
For `CCS(=O)(=O)c1ccc(-n2ncn(-c3ccc(/C=N/OC)cc3)c2=O)nc1-c1nc2cc(C(F)(F)C(F)(F)F)cnc2n1C` [Example I-24], the pest or weed control at 100 g/ha in data set [1] (100 g/ha (=32 μg/cavity)) and in data set [3] was 100% each time.
Consider `CCS(=O)(=O)c1ccc(-n2ncn(-c3cccc(C4(C#N)CC4)c3)c2=O)nc1-c1nc2cc(C(F)(F)C(F)(F)F)nnc2n1C` [Example I-01], for which the pest or weed control at 100 g/ha in data set [1] (100 g/ha (=32 μg/cavity)) and in data set [3] was 100% throughout.
As for `CCS(=O)(=O)c1ccc(-n2ncn(-c3ccc(I)cc3)c2=O)nc1-c1nc2cc(C(F)(F)C(F)(F)F)cnc2n1C` [Example I-20], the pest or weed control at 125 g/ha in data set [1] was 100%. Further, in data set [2], the pest or weed control at 20 ppm was 90%. The pest or weed control at 100 g/ha in data set [3] is 100%. The efficacy in data set [7] was found to be 100%.
Take `CCS(=O)(=O)c1ccc(-n2ncn(-c3ccc(Cl)c(C#N)c3)c2=O)nc1-c1nc2cc(C(F)(F)C(F)(F)F)nnc2n1C` [Example I-08]: the pest or weed control at 100 g/ha in data set [1] (100 g/ha (=32 μg/cavity)) and in data set [3] was 100% in each case. For the same molecule, the pest or weed control at 20 ppm in data set [2] turned out to be 100%.
Turning to `CCS(=O)(=O)c1ccc(-n2ncn(-c3cccc(Br)c3)c2=O)nc1-c1nc2cc(C(F)(F)C(F)(F)F)nnc2n1C` [Example I-11], the pest or weed control at 100 g/ha in data set [1] (100 g/ha (=32 μg/cavity)) came to 100%. For the same molecule, in data set [2], the pest or weed control at 20 ppm came to 100%. The efficacy in data set [3] (100 g/ha) was 100%; in data set [7] it was 90%.
As for `CCS(=O)(=O)c1ccc(-n2ncn(-c3ccc(C#N)c(Cl)c3)c2=O)nc1-c1nc2cc(C(F)(F)C(F)(F)F)nnc2n1C` [Example I-05], the pest or weed control at 100 g/ha in data set [1] (100 g/ha (=32 μg/cavity)) and in data set [3] was 100% in each case. Also, the pest or weed control at 20 ppm in data set [2] came out at 100%.
Consider `CCS(=O)(=O)c1ccc(F)nc1-c1nc2cc(C(F)(F)C(F)(F)F)cnc2n1C` [2-(3-Ethylsulfonyl-6-fluoro-2-pyridyl)-3-methyl-6-(1,1,2,2,2-pentafluoroethyl)imidazo[4,5-b]pyridine], for which, in data set [5] (setting [8]), the chromatographic logP was found to be 3.33.
